# Biological target: T1, GV sPLA2 (Homo sapiens, UniProt P39877)
# T1 sequence (P39877 21-138): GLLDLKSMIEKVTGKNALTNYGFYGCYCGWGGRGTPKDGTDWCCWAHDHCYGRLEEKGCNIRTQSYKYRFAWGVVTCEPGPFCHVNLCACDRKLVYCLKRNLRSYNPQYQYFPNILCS
# Experiment: mixed-micelle radiolabelled phospholipid
# Format: biochemical
smiles,measurement,value
"CCCC[C@H](CCC(=O)O)NC(=O)CCCCCCc1ccccc1 [compound 42, (R)-4-(7-Phenylheptanamido)octanoic acid]",GV sPLA2,0.003 ± 0.0004 mole fraction (XI(50))

# — PMC2796434 (Bioorganic & medicinal chemistry, 2008)
